Reference: US10736872B1, “Pharmaceutical mixture to treat statin induced vascular calcification” (priority 2019, dated 2020)

What was measured:
Assay type in all cases: cell-based
[1] = test system: human aortic smooth muscle cells (AoSMC); assay: Alkaline phosphatase activity assay in AoSMC; conditions: for decrease in ALP activity: 5 mM b-GP, 25 mcM forskolin; for increase of ALP activity / increase in ALP activity compared to control / increase of ALP activity compared to control: 1 mcM statin; for increase in ALP activity compared to control: pro-calcification condition (5 mM b-GP and 25 mcM forskolin), FIG. 4B; for increase in ALP activity compared to control / increase of ALP activity compared to control: four days; for increase of ALP activity compared to control: FIG. 4A
Method: Alkaline phosphatase activity assay in AoSMC: AoSMC were plated in 96 well plates and grown to confluent layer. […] Cells were washed with phosphate buffered saline (PBS) and supplemented with 50 mcl/well 25 mcg/ml 4-MUP (fluorescent ALP substrate, Sigma) in alkaline buffer (Sigma)/1% Triton X100 for 1 h at room temperature. Fluorescence was measured at 360/450 nm.
Statistical analysis: Results in figures are means±standard deviation (SD) from three or more repetitions from the most representative of at least two independent experiments. Differences between samples were estimated with a two-tailed Student's t-test using Excel software (Microsoft) and accepted as significant at p levels less than 0.05. The results in FIGS. 4A and 4B and FIGS. 5A and 5B are expressed as percentage of supplemented controls and presented as means±SD from six or more repetitions from the most representative of at least two independent experiments.
The calcification process of AoSMC was evaluated by the activity of cellular alkaline phosphatase (ALP). The study assessed the effects of Mixture 1 (micronutrient combination containing ascorbate) and ascorbate individually under standard (5% FBS/DMEM) and pro-calcification conditions (5% FBS/DMEM supplemented with 5 mM beta-glycerophosphate (b-GP) and 25 mcM forskolin—FIG. 4B).

[2] = test system: human aortic smooth muscle cells (AoSMC); assay: Calcium accumulation in extracellular matrix of AoSMC
Method: Cell viability was monitored with MTT assay. […] Plant-derived micronutrients suppress monocyte adhesion to cultured human aortic endothelial cell layer by modulating its extracellular matrix composition. J Cardiovasc Pharmacol 2008; 52:55-65. After four washes with PBS, ECM layers were solubilized by incubation in 0.6N HCl for 48 hours at 37° C. Calcium content in solubilized samples was measured with TECO Ca assay according to the manufacturer's protocol. […] The calcification process of AoSMC was evaluated by the activity of cellular alkaline phosphatase and calcium accumulation in the cell-produced extracellular matrix (FIG. 1).

human aortic SMC = assay: Expression of osteoblast markers in AoSMC (immunoassay); conditions: 100 mcM ascorbic acid, 5 mM beta-glycerophosphate and 25 mcM forskolin, 4 weeks, FIG. 3A
[3] = test system: human dermal fibroblasts (DF); assay: Expression of osteoblast markers in human dermal fibroblasts (immunoassay); conditions: 100 mcM ascorbic acid, 5 mM beta-glycerophosphate and 25 mcM forskolin, 4 weeks, FIG. 3B
[4] = 300 mcM ascorbate, regular growth medium, FIG. 1
[5] = 100 mcM ascorbate in the presence of simvastatin, without forskolin, FIG. 2A
[6] = plain 5% FBS/DMEM, five days, FIG. 5A
[7] = pro-calcification conditions (5 mM b-GP, 25 mcM forskolin), five days, FIG. 5B

O=C1O[C@H]([C@@H](O)CO)C(O)=C1O [ascorbic acid, L-ascorbic acid]
ALP activity after addition of ascorbate ([1]; 300 mcM ascorbate in the presence of 1 mcM simvastatin, plain 5% FBS/DMEM, five days, FIG. 5A): decreased to control level
decrease in ALP activity ([1]; 300 mcM ascorbate, mevastatin containing samples, five days, FIG. 5B): 37%
decrease in ALP activity ([1]; 300 mcM ascorbate, pravastatin containing samples, five days, FIG. 5B): 24%
decrease of alkaline phosphatase activity [1, 4]: 80%
decrease in ALP activity ([1]; 300 mcM ascorbate, simvastatin containing samples, five days, FIG. 5B): 36%
decrease in ALP activity ([1]; 300 mcM ascorbic acid in the absence of statins, five days, FIG. 5B): 29%
decrease of statin-stimulated ALP activity ([1]; 300 mcM ascorbic acid in the presence of 1 mcM mevastatin, plain 5% FBS/DMEM, five days, FIG. 5A): 29%
decrease of statin-stimulated ALP activity ([1]; 300 mcM ascorbic acid in the presence of 1 mcM pravastatin, plain 5% FBS/DMEM, five days, FIG. 5A): 30%
decrease of alkaline phosphatase activity ([1]; 300 mcM ascorbic acid, no statin, plain 5% FBS/DMEM, five days, FIG. 5A): about 43%
decrease of calcium accumulation ([2]; 100 mcM ascorbate added in the presence of mevastatin, with forskolin, FIG. 2B, to below control values): 19%
accumulated calcium [2, 5]: 0.2 mcg/well
decrease of accumulated calcium [2, 5]: 54%
decrease of extracellular Ca accumulation by AoSMC [2, 4]: 20%
expression of all tested osteogenic markers (human aortic SMC): significantly reduced
expression of all tested osteogenic markers [3]: significantly reduced

CCC(C)(C)C(=O)O[C@H]1C[C@@H](C)C=C2C=C[C@H](C)[C@H](CC[C@@H]3C[C@@H](O)CC(=O)O3)[C@H]21 [simvastatin]
increase of ALP activity [1, 6]: 57%
increase in ALP activity compared to control [1]: 22%
increase of ALP activity [1, 7]: 30%
increase of calcium accumulation in AoSMC layers ([2]; simvastatin, without forskolin, FIG. 2A): 23%

CC[C@H](C)C(=O)O[C@H]1C[C@H](O)C=C2C=C[C@H](C)[C@H](CC[C@@H](O)C[C@@H](O)CC(=O)O)[C@H]21 [pravastatin]
increase of ALP activity [1, 6]: 60%
increase of ALP activity compared to control ([1]; plain 5% FBS/DMEM): 39%
increase in ALP activity compared to control [1]: 25%
increase of ALP activity [1, 7]: 25%

CC[C@H](C)C(=O)O[C@H]1CCC=C2C=C[C@H](C)[C@H](CC[C@@H]3C[C@@H](O)CC(=O)O3)[C@H]21 [mevastatin]
increase of ALP activity [1, 6]: 61%
increase of ALP activity compared to control ([1]; plain 5% FBS/DMEM): 25%
increase in ALP activity compared to control [1]: 39%
increase of ALP activity [1, 7]: 41%
calcium accumulation ([2]; 1 mM mevastatin, with 25 mcM forskolin, FIG. 2B, control 1.35 mcg/well): 1.8 mcg/well
